Experimental data from US20230279025A1, “KRAS G12D INHIBITORS” (Mirati Therapeutics, Inc., priority 2020, published 2023).

Molecular target: KRas G12D (Homo sapiens (Human), UniProt P01116, G12D)
Assay: KRas G12D Binding Assay (TR-FRET displacement of Cy5 labelled tracer)
Settings: GDP-loaded KRAS G12D (amino acids 1:169), 60 minute incubation at 22° C.
Description: After a 60 minute incubation at 22° C., the reaction was measured using a PerkinElmer EnVision multimode plate reader via TR-FRET dual wavelength detection, and the percent of control (POC) calculated using a ratiometric emission factor. […] The POC values were fit to a 4-parameter logistic curve and the IC50 value was determined as the concentration where the curve crosses 50 POC.
ND stands for “not determined.”

Chain of KRas G12D (P01116 other isoform, or with tags, fused parts or gaps G12D): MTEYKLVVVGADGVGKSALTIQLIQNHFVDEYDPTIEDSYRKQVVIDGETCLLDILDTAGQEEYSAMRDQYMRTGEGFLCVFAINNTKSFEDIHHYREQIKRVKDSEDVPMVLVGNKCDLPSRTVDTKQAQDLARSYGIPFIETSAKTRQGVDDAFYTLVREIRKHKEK

Row | Compound | IC50 [nM]
1 | O=C(CCl)N1CCC(Oc2nc(N3C[C@H]4CC[C@@H](C3)N4)c3cnc(-c4cccc5cccc(Cl)c45)c(F)c3n2)CC1 [Example 163, 1-(4-((4-((1R,5S)-3,8-diazabicyclo[3.2.1]octan-3-yl)-7-(8-chloronaphthalen-1-yl)-8-fluoropyrido[4,3-d]pyrimidin-2-yl)oxy)piperidin-1-yl)-2-chloroethan-1-one bis(2,2,2-trifluoroacetate)] | 5550
2 | CO[C@H](C)COc1nc(N2C[C@H]3CC[C@@H](C2)N3)c2cnc(-c3cccc4cccc(Cl)c34)c(F)c2n1 [Example 138, 4-((1R,5S)-3,8-diazabicyclo[3.2.1]octan-3-yl)-7-(8-chloronaphthalen-1-yl)-8-fluoro-2-((R)-2-methoxypropoxy)pyrido[4,3-d]pyrimidine] | 8070
3 | O[C@@H]1C[C@@H]2CN(c3nc(N4CCC4)nc4c(F)c(-c5cccc6cccc(Cl)c56)ncc34)C[C@H]1N2 [Example 152, (1R,5R,6R)-3-(2-(azetidin-1-yl)-7-(8-chloronaphthalen-1-yl)-8-fluoropyrido[4,3-d]pyrimidin-4-yl)-3,8-diazabicyclo[3.2.1]octan-6-ol] | 2650
4 | Fc1cccc(-c2ncc3c(N4C[C@H]5CC[C@@H](C4)N5)nc(OCC45CCCN4CCC5)nc3c2F)c1OC(F)F [Example 302, 4-((1R,5S)-3,8-diazabicyclo[3.2.1]octan-3-yl)-7-(2-(difluoromethoxy)-3-fluorophenyl)-8-fluoro-2-((hexahydro-1H-pyrrolizin-7a-yl)methoxy)pyrido[4,3-d]pyrimidine] | 43.6
5 | N=C(N)NCCOc1nc(N2CC3CCC(C2)N3)c2cnc(-c3cccc4cccc(Cl)c34)c(F)c2n1 [Example 176, 1-[2-[7-(8-chloro-1-naphthyl)-4-(3,8-diazabicyclo[3.2.1]octan-3-yl)-8-fluoro-pyrido[4,3-d]pyrimidin-2-yl]oxyethyl]guanidine] | 235
6 | Cn1ccc(CCOc2nc(N3C[C@H]4CC[C@@H](C3)N4)c3cnc(-c4cccc5cccc(Cl)c45)c(F)c3n2)n1 [Example 145, 4-((1R,5S)-3,8-diazabicyclo[3.2.1]octan-3-yl)-7-(8-chloronaphthalen-1-yl)-8-fluoro-2-(2-(1-methyl-1H-pyrazol-3-yl)ethoxy)pyrido[4,3-d]pyrimidine] | 5000
7 | CN1CC[C@H](Oc2nc(N3C[C@H]4CC[C@@H](C3)N4)c3cnc(-c4cccc5cccc(Cl)c45)c(F)c3n2)C1 [Example 359, 4-((1R,5S)-3,8-diazabicyclo[3.2.1]octan-3-yl)-7-(8-chloronaphthalen-1-yl)-8-fluoro-2-(((S)-1-methylpyrrolidin-3-yl)oxy)pyrido[4,3-d]pyrimidine] | 1640
8 | Oc1ccc(C(F)(F)F)c(-c2ncc3c(N4C[C@H]5CC[C@@H](C4)N5)nc(OCC45CCCN4CCC5)nc3c2F)c1 [Example 373, 3-(4-((1R,5S)-3,8-diazabicyclo[3.2.1]octan-3-yl)-8-fluoro-2-((tetrahydro-1H-pyrrolizin-7a(5H)-yl)methoxy)pyrido[4,3-d]pyrimidin-7-yl)-4-(trifluoromethyl)phenol] | 1.6
9 | Oc1cc(-c2ncc3c(N4C[C@H]5CC[C@@H](C4)N5)nc(OCC45CCCN4CCC5)nc3c2F)c2c(Cl)cccc2c1 [Example 36, 4-(4-((1R,5S)-3,8-diazabicyclo[3.2.1]octan-3-yl)-8-fluoro-2-((tetrahydro-1H-pyrrolizin-7a(5H)-yl)methoxy)pyrido[4,3-d]pyrimidin-7-yl)-5-chloronaphthalen-2-ol] | 0.4
10 | C[C@H](N)COc1nc(N2CC3CCC(C2)N3)c2cnc(-c3cccc4cccc(Cl)c34)c(F)c2n1 [Example 374, (S)-1-((4-((1R,5S)-3,8-diazabicyclo[3.2.1]octan-3-yl)-7-(8-chloronaphthalen-1-yl)-8-fluoropyrido[4,3-d]pyrimidin-2-yl)oxy)propan-2-amine bis(2,2,2-trifluoroacetate)] | 348
